{"source": "patent US20260158172A1", "about": "“CELL DEATH METHOD USING CRISPR/CAS SYSTEM HAVING SINGLE-STRAND BREAK ACTIVITY AND PARP INHIBITOR” (INSTITUTE FOR BASIC SCIENCE, priority 2023, published 2026)", "key": {"HCT-116 tumors": {"tested_on": "HCT-116 tumors", "test": "Tumor growth inhibition experiment in HCT-116 tumor xenograft mouse model", "assay_type": "in vivo", "conditions": "for Volume of Tumor (mm^3, Average, n = 4): HCT-116 xenograft, BALB/c nude mice, intratumoral injection every two days, eight injections, olaparib 28.5 μg", "experimental": "For the delivery of RNP, lipid nanoparticles (LNPs) were prepared using an ethanol dilution method. All lipids (the molar ratio of C12-200/DOPE/cholesterol/DMG-PEG/DOTAP in the LNPs was fixed at 35/16/46.5/2.5/11.11) were dissolved in ethanol. RNPs (with a molar ratio of sgRNA to Cas9 protein of 1:1) were dissolved in PBS (pH 7.4). The two solutions were rapidly mixed by pipetting at a PBS-to-ethanol ratio of 3:1 (v/v) and a total lipid-to-sgRNA ratio of 20:1 (w/w), followed by incubation at room temperature for 15 minutes. For in vivo experiments, the RNP-loaded LNP formulation was purified by dialysis against PBS for 2 hours using a dialysis kit (Pur-A-Lyzer Midi Dialysis Kits, MWCO 3.5 kDa) and then concentrated using Amicon Ultra-15 centrifugal filters (MWCO 50 kDa), followed by intratumoral injection (50 μg of sgRNA-loaded LNP per injection). The above C12-200 was purchased from Cayman Chemical. The above DOPE, DOTAP, and DMG-PEG (MW 2000) were purchased from Avanti Polar Lipids. The above Cholesterol, the Pur-A-Lyzer Midi Dialysis Kit (MWCO, 3.5 kDa), and the Amicon Ultra-15 centrifugal filters (MWCO, 50 kDa) were purchased from Sigma. All chemicals were used without further purification.\nFemale BALB/c nude mice (5 weeks old) were purchased from Orient Bio and used for all animal experiments. The mice were handled in accordance with the guidelines of the Institutional Animal Care and Use Committee of Ulsan National Institute of Science and Technology ([…]-23-09). In the case of the xenograft model, 5×10^6 HCT116 cells stably expressing Cas9WT were suspended in 60 μL of PBS (pH 7.4) and mixed with 60 μL of Matrigel (BD Bioscience), followed by subcutaneous injection into the flank of each mouse. Tumor volume and body weight were measured every two days. Tumor volume was calculated using the following formula.\nIn the above formula, V represents the volume, a represents the length of the long axis, and b represents the length of the short axis.\nWhen the tumor volume reached approximately 80 mm^3, the mice were randomly divided into multiple groups for experimentation.\nTo evaluate the antitumor efficacy of the administered materials in each group, mice bearing tumors established according to Experimental Example 1.11 were anesthetized with 1.5% isoflurane, and the administered material (PBS or LNP) was intratumorally injected every two days. A total of eight injections were performed over a period of 14 days, and the mice were sacrificed on day 25.\nThe tumor growth inhibition rate was calculated using the following formula.\nHere, VDay0,treatment and VDay24,treatment represent the tumor volumes of the treatment group on day 0 and day 24, respectively, and VDay0,control and VDay24,control represent the tumor volumes of the control group administered with PBS on day 0 and day 24, respectively.\nThe tumor xenograft mouse model prepared according to Experimental Example 1.10 was randomly divided into four groups. Then, a PARP inhibitor and a CRISPR/nCas composition for cell death were administered according to Experimental Example 1.11 to confirm tumor growth inhibition effects. Specifically, 28.5 μg of olaparib diluted in PBS and the CRISPR/nCas composition for cell death were administered."}, "HCT-116 cells": {"tested_on": "HCT-116 cells", "test": "Cell viability (CellTiter-Glo), Experimental Example 5: type of PARP inhibitor", "assay_type": "cell-based", "conditions": "olaparib 1 μM, rucaparib 1 μM, niraparib 0.1 μM, veliparib 2 μM", "experimental": "(§1) A total of 0.5×10^4 cells were mixed with 1 μM olaparib (AZD2281) (Selleckchem, #S1060), 1 μM rucaparib (Selleckchem, #S4948), 0.1 μM niraparib (MK-4827) (Selleckchem, #S2741), 2 μM veliparib (ABT-888) (Selleckchem, #S1004), or 10 µM iniparib (BSI-201) (Selleckchem, #S1087), and seeded onto 24-well plates.\n(§2) To transfect RNPs, cells were transfected with 665 ng of the Cas protein of each Embodiment and 95 ng of the sgRNA of each Embodiment using a Lipofectamine CRISPRMAX Cas9 Transfection Reagent (Invitrogen, #CMAX00015), and then cultured for 3 days. When treated together with a PARP inhibitor, the PARP inhibitor was treated according to Experimental Example 1.6, and the RNPs were treated one day thereafter.\n(§3) Cell viability was measured using a CellTiter-Glo Luminescent Cell Viability Assay (Promega, #G7571). After the transfected cells were cultured for 3 days, the cells were detached using Trypsin-EDTA (0.25%) (Gibco, #25200056). The cells were diluted in 400 μL of DMEM, followed by dispensing 100 μL of the cells, mixed with 100 μL of the CellTiter-Glo Reagent, and then incubated at room temperature for 10 minutes. Luminescence signals were measured using an Infinite 200 (Tecan) in a white opaque 96-well plate (Corning, #3917).\n(§4) Specifically, Hela cells and HCT-116 cells cultured according to Experimental Example 1.1 were treated with a PARP inhibitor and a CRISPR/nCas composition for cell death having the compositions shown in the following table.\n(§5) For each RNP composition of the embodiment using nCas9^D10A, one PARP inhibitor selected from olaparib, rucaparib, niraparib, veliparib, and iniparib was co-administered. DMSO was used as a control.\n(§6) The Cas protein and the nCas protein used in this experiment were prepared according to Experimental Example 1.2, and the sgRNA used was prepared according to Experimental Example 1.3. The nCas protein and the sgRNA were administered to the cells in the form of RNPs according to Experimental Example 1.7. The cells were each treated with the respective PARP inhibitors at the concentrations disclosed in Experimental Example 1.6 using the materials disclosed in the above table.\n(§7) Thereafter, cell viability was measured according to Experimental Example 1.8."}, "HeLa cells": {"tested_on": "HeLa cells", "test": "Cell viability (CellTiter-Glo), Experimental Example 5: type of PARP inhibitor", "assay_type": "cell-based", "conditions": "olaparib 1 μM, rucaparib 1 μM, niraparib 0.1 μM, veliparib 2 μM", "experimental": "as §1, §2, §3, §4, §5, §6, §7"}, "[1]": {"conditions": "PARP inhibitor with nCas9^D10A, Target = Mock (PBS instead of sgRNA)"}, "[2]": {"conditions": "drug_only (no Cas protein, no guide RNA)"}}}
{"smiles": "O=C(c1cc(Cc2n[nH]c(=O)c3ccccc23)ccc1F)N1CCN(C(=O)C2CC2)CC1", "note": "[Olaparib, olaparib]", "values": [{"measurement": "Volume of Tumor (mm^3, Average, n = 4)", "setting": "HCT-116 tumors; Day 0", "value": 82.1, "unit": "mm^3"}, {"measurement": "Volume of Tumor (mm^3, Average, n = 4)", "setting": "HCT-116 tumors; Day 2", "value": 117.0, "unit": "mm^3"}, {"measurement": "Volume of Tumor (mm^3, Average, n = 4)", "setting": "HCT-116 tumors; Day 4", "value": 172.6, "unit": "mm^3"}, {"measurement": "Volume of Tumor (mm^3, Average, n = 4)", "setting": "HCT-116 tumors; Day 6", "value": 241.8, "unit": "mm^3"}, {"measurement": "Volume of Tumor (mm^3, Average, n = 4)", "setting": "HCT-116 tumors; Day 8", "value": 320.3, "unit": "mm^3"}, {"measurement": "Volume of Tumor (mm^3, Average, n = 4)", "setting": "HCT-116 tumors; Day 10", "value": 371.2, "unit": "mm^3"}, {"measurement": "Volume of Tumor (mm^3, Average, n = 4)", "setting": "HCT-116 tumors; Day 12", "value": 476.0, "unit": "mm^3"}, {"measurement": "Volume of Tumor (mm^3, Average, n = 4)", "setting": "HCT-116 tumors; Day 14", "value": 542.7, "unit": "mm^3"}, {"measurement": "Volume of Tumor (mm^3, Average, n = 4)", "setting": "HCT-116 tumors; Day 16", "value": 610.7, "unit": "mm^3"}, {"measurement": "Volume of Tumor (mm^3, Average, n = 4)", "setting": "HCT-116 tumors; Day 18", "value": 702.9, "unit": "mm^3"}, {"measurement": "Volume of Tumor (mm^3, Average, n = 4)", "setting": "HCT-116 tumors; Day 20", "value": 847.8, "unit": "mm^3"}, {"measurement": "Volume of Tumor (mm^3, Average, n = 4)", "setting": "HCT-116 tumors; Day 22", "value": 907.4, "unit": "mm^3"}, {"measurement": "Volume of Tumor (mm^3, Average, n = 4)", "setting": "HCT-116 tumors; Day 24", "value": 996.7, "unit": "mm^3"}, {"measurement": "Tumor Inhibition Rate (%)", "setting": "HCT-116 tumors; calculated from tumor volumes on day 0 and day 24 versus PBS control, HCT-116 xenograft mice", "value": 8.10, "unit": "%"}, {"measurement": "Relative cell viability (average, n = 3)", "setting": "HCT-116 cells; [1]", "value": 1.0164}, {"measurement": "Relative cell viability (average, n = 3)", "setting": "HCT-116 cells; [2]", "value": 1.1219}, {"measurement": "Relative cell viability (average, n = 3)", "setting": "HeLa cells; [1]", "value": 0.9135}, {"measurement": "Relative cell viability (average, n = 3)", "setting": "HeLa cells; [2]", "value": 0.8856}]}
